Reference: PubChem BioAssay AID330 (DTP/NCI, 2004)
Where “and” joins values, the source holds several entries; their conditions need not be identical. Equal values may be shown once. Inconclusive results and toxic doses are left out. The calls were made as follows: active = survival T/C of 150% or more; inactive = T/C below 125% in these data.

System: P388 leukemia ip, CD2F1 mice, survival T/C
Assay: NCI In Vivo Anticancer Drug Screen. Data for tumor model P388 Leukemia (intraperitoneal) in CD2F1 (CDF1) mice
Details: endpoint: median survival time, higher = longer survival
Summary of the method: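 Mice carrying the transplanted tumor received test compound or vehicle. Survival was recorded in each group, and the value is the treated-group measurement divided by that of the vehicle-treated control group.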

[1] = dose: 100.0 mg/kg/injection, schedule: Q04DX003 (ip), vehicle: saline with Tween-80
[2] = dose: 200.0 mg/kg/injection, schedule: Q04DX003 (ip), vehicle: saline with Tween-80
[3] = dose: 400.0 mg/kg/injection, schedule: Q04DX003 (ip), vehicle: saline with Tween-80
[4] = dose: 50.0 mg/kg/injection, schedule: Q01DX009 (ip), vehicle: saline with Tween-80
[5] = dose: 100.0 mg/kg/injection, schedule: Q01DX009 (ip), vehicle: saline with Tween-80
[6] = dose: 200.0 mg/kg/injection, schedule: Q01DX009 (ip), vehicle: saline with Tween-80
[7] = dose: 60.0 mg/kg/injection, schedule: Q01DX005 (ip), vehicle: Klucel (hydroxypropylcellulose) (HPC)
[8] = dose: 120.0 mg/kg/injection, schedule: Q01DX005 (ip), vehicle: Klucel (hydroxypropylcellulose) (HPC)
[9] = dose: 60.0 mg/kg/injection, schedule: Q01DX005 (ip), vehicle: saline with Tween-80
[10] = dose: 120.0 mg/kg/injection, schedule: Q01DX005 (ip), vehicle: saline with Tween-80
[11] = dose: 240.0 mg/kg/injection, schedule: Q01DX005 (ip), vehicle: saline with Tween-80
[12] = dose: 50.0 mg/kg/injection, schedule: Q01DX005 (ip), vehicle: saline with Tween-80
[13] = dose: 100.0 mg/kg/injection, schedule: Q01DX005 (ip), vehicle: saline with Tween-80
[14] = dose: 200.0 mg/kg/injection, schedule: Q01DX005 (ip), vehicle: saline with Tween-80

Measured: T/C

Cc1c2cc(Cl)c3ccccc3c2c[n+]2ccccc12
inactive: dose: 16.5 mg/kg/injection, schedule: Q01DX009 (ip), vehicle: saline 111 % of control | dose: 25.0 mg/kg/injection, schedule: Q01DX009 (ip), vehicle: saline 121 % of control | dose: 37.5 mg/kg/injection, schedule: Q01DX009 (ip), vehicle: saline 124 % of control | dose: 50.0 mg/kg/injection, schedule: Q04DX003 (ip), vehicle: saline with Tween-80 113 % of control | [1] 121 % of control and 123 % of control | [2] 92 % of control | [3] 108 % of control

CC(C)=CCc1c2c(c(O)c3c(=O)c(-c4ccc(O)cc4O)coc13)C=CC(C)(C)O2
inactive: dose: 25.0 mg/kg/injection, schedule: Q01DX009 (ip), vehicle: saline with Tween-80 104 % of control | [4] 102 % of control | [5] 104 % of control | [6] 99 % of control

CCN(CC)Cc1c(C)[nH]c2cc3c(cc2c1=O)CCCC3
inactive: [7] 98 % of control | [8] 90 % of control

Cc1ccc(S(=O)(=O)N/N=C/c2ccc(O)c(Cl)c2)cc1
inactive: dose: 12.5 mg/kg/injection, schedule: Q01DX005 (ip), vehicle: distilled water + Tween-80 102 % of control | dose: 25.0 mg/kg/injection, schedule: Q01DX005 (ip), vehicle: distilled water + Tween-80 102 % of control | dose: 50.0 mg/kg/injection, schedule: Q01DX005 (ip), vehicle: distilled water + Tween-80 98 % of control | dose: 100.0 mg/kg/injection, schedule: Q01DX005 (ip), vehicle: distilled water + Tween-80 100 % of control | dose: 200.0 mg/kg/injection, schedule: Q01DX005 (ip), vehicle: distilled water + Tween-80 99 % of control

COc1ccc(/C(O)=C/c2nc3ccc([N+](=O)[O-])cc3[nH]c2=O)cc1
inactive: dose: 60.0 mg/kg/injection, schedule: Q01DX005 (ip), vehicle: Klucel + Tween-80 97 % of control | dose: 120.0 mg/kg/injection, schedule: Q01DX005 (ip), vehicle: Klucel + Tween-80 94 % of control | dose: 240.0 mg/kg/injection, schedule: Q01DX005 (ip), vehicle: Klucel + Tween-80 95 % of control

S=C1CCCCCN1
inactive: dose: 12.5 mg/kg/injection, schedule: Q01DX005 (ip), vehicle: Klucel (hydroxypropylcellulose) (HPC) 107 % of control | dose: 25.0 mg/kg/injection, schedule: Q01DX005 (ip), vehicle: Klucel (hydroxypropylcellulose) (HPC) 100 % of control | dose: 50.0 mg/kg/injection, schedule: Q01DX005 (ip), vehicle: Klucel (hydroxypropylcellulose) (HPC) 103 % of control and 104 % of control

O=C1CCC(N2C(=O)C3C4CCC(O4)C3C2=O)C(=O)N1 (stereo not given)
inactive: [9] 101 % of control | [10] 94 % of control | [11] 100 % of control

Cc1[nH]c2ccccc2c1CCCO
inactive: dose: 50.0 mg/kg/injection, schedule: Q01DX005 (ip), vehicle: saline 105 % of control | dose: 100.0 mg/kg/injection, schedule: Q01DX005 (ip), vehicle: saline 100 % of control | dose: 200.0 mg/kg/injection, schedule: Q01DX005 (ip), vehicle: saline 105 % of control

Cc1cccc(-n2c(N)cc(=O)[nH]c2=S)n1
inactive: dose: 25.0 mg/kg/injection, schedule: Q01DX001 (ip), vehicle: saline with Tween-80 100 % of control | dose: 50.0 mg/kg/injection, schedule: Q01DX001 (ip), vehicle: saline with Tween-80 100 % of control | dose: 100.0 mg/kg/injection, schedule: Q01DX001 (ip), vehicle: saline with Tween-80 109 % of control

O=C(/C=C/c1ccc(OCc2ccccc2)cc1)c1ccc([N+](=O)[O-])cc1
inactive: [4] 99 % of control | [5] 104 % of control | [6] 102 % of control

CC1c2ccccc2CC(CCN(C)C)c2ccccc21 (stereo not given)
inactive: dose: 6.25 mg/kg/injection, schedule: Q01DX005 (ip), vehicle: saline with Tween-80 101 % of control and 102 % of control and 106 % of control | dose: 12.5 mg/kg/injection, schedule: Q01DX005 (ip), vehicle: saline with Tween-80 101 % of control and 109 % of control (2×) | dose: 25.0 mg/kg/injection, schedule: Q01DX005 (ip), vehicle: saline with Tween-80 109 % of control and 97 % of control | [12] 110 % of control

Cn1c(NC(=O)C(F)(F)F)cc(=O)n(C)c1=O
inactive: [12] 102 % of control | [13] 95 % of control | [14] 101 % of control

c1ccc(-c2nc3n(n2)CCC(c2ccccc2)S3)cc1 (stereo not given)
inactive: [9] 92 % of control | [10] 89 % of control | [11] 87 % of control

CCC1=C(c2cccc(OC(C)=O)c2)C(C)c2ccc(OC(C)=O)cc21 (stereo not given)
inactive: [7] 96 % of control | [8] 95 % of control | dose: 240.0 mg/kg/injection, schedule: Q01DX005 (ip), vehicle: Klucel (hydroxypropylcellulose) (HPC) 95 % of control

COC(=O)N1C(C#N)=CCc2ccccc21
inactive: [9] 94 % of control | [10] 108 % of control | [11] 97 % of control

c1ccc(Cc2ccccc2)cc1
inactive: [4] 105 % of control | [5] 110 % of control | [6] 109 % of control

COc1ccc(CNC(=O)C(CO)N2C(=O)c3ccccc3C2=O)cc1 (stereo not given)
inactive: [12] 96 % of control | [13] 100 % of control | [14] 90 % of control

Cc1cc(Cl)c(C)cc1Cl
inactive: [4] 91 % of control | [5] 95 % of control | [1] 105 % of control | [6] 95 % of control | [2] 110 % of control | [3] 110 % of control

COc1ccc(OC(=O)CCCl)cc1
inactive: [5] 113 % of control | [6] 108 % of control | dose: 400.0 mg/kg/injection, schedule: Q01DX009 (ip), vehicle: saline with Tween-80 104 % of control

NC(=O)CC1Cc2ccc3ccc(O)cc3c2C1=O (stereo not given)
inactive: dose: 12.5 mg/kg/injection, schedule: Q01DX009 (ip), vehicle: distilled water + Tween-80 100 % of control | dose: 25.0 mg/kg/injection, schedule: Q01DX009 (ip), vehicle: distilled water + Tween-80 97 % of control | dose: 50.0 mg/kg/injection, schedule: Q01DX009 (ip), vehicle: distilled water + Tween-80 93 % of control | dose: 100.0 mg/kg/injection, schedule: Q01DX009 (ip), vehicle: distilled water + Tween-80 94 % of control | dose: 200.0 mg/kg/injection, schedule: Q01DX009 (ip), vehicle: distilled water + Tween-80 95 % of control

CC(=O)Oc1cc(-c2ccccc2)oc1-c1ccccc1
inactive: dose: 100.0 mg/kg/injection, schedule: Q04DX002 (ip), vehicle: saline 104 % of control | dose: 200.0 mg/kg/injection, schedule: Q04DX002 (ip), vehicle: saline 106 % of control | dose: 400.0 mg/kg/injection, schedule: Q04DX002 (ip), vehicle: saline 98 % of control
